Experimental data published in ChEMBL document CHEMBL1671703, “Bile acids improve the antimicrobial effect of rifaximin” (2010).
Calls of active or inactive are those of the source. No cut-off for these calls is given here.

Legend:
Escherichia coli [1] = assay: Decrease in protein expression in Escherichia coli H10407 at 16 ug/ml after 4 hrs; assay type: functional, ETEC H10407; parameters: scale not given: the % may be the effect or the level left
Escherichia coli [2] = assay: Antimicrobial activity against Escherichia coli H10407 assessed as decrease in cell density at 16 ug/ml after 4 hrs in presence of 4 mM taurocholic acid; assay type: functional, ETEC H10407
Escherichia coli [3] = assay: Inhibition of RNA synthesis in Escherichia coli H10407 assessed as inhibition of beta-galactosidase expression at 16 ug/ml in presence of […] bile acid; assay type: functional, ETEC H10407
Escherichia coli [4] = assay: Antimicrobial activity against Escherichia coli H10407 assessed as decrease in cell density at 16 ug/ml after 4 hrs in presence of 4 mM lithocholic acid; assay type: functional, ETEC H10407
Escherichia coli [5] = assay: Antimicrobial activity against Escherichia coli H10407 assessed as decrease in cell density at 16 ug/ml after 4 hrs in presence of 4 mM chenodeoxycholic acid; assay type: functional, ETEC H10407
Escherichia coli [6] = assay: Inhibition of RNA synthesis in Escherichia coli H10407 assessed as inhibition of beta-galactosidase expression at 8 ug/ml in presence of 4 mM bile acid; assay type: functional, ETEC H10407
Escherichia coli [7] = assay: Antimicrobial activity against Escherichia coli H10407 assessed as decrease in cell density at 16 ug/ml after 4 hrs in presence of 4 mM cholic acid; assay type: functional, ETEC H10407
Escherichia coli [8] = assay: Antimicrobial activity against Escherichia coli H10407 assessed as decrease in cell density at 16 ug/ml after 4 hrs; assay type: functional; conditions: ETEC H10407
Escherichia coli [9] = assay: Bacteriostatic activity against Escherichia coli H10407 at 16 ug/ml in presence of bile acid relative to absence of bile acid; assay type: functional, ETEC H10407
Escherichia coli [10] = assay: Antimicrobial activity against Escherichia coli H10407 assessed as growth inhibition at 16 ug/ml; assay type: functional; conditions: ETEC H10407
Escherichia coli [11] = assay: Antimicrobial activity against Escherichia coli H10407 assessed as decrease in cell density at 16 ug/ml after 4 hrs in presence of 4 mM deoxycholic acid; assay type: functional, ETEC H10407
Escherichia coli [12] = assay: Antimicrobial activity against Escherichia coli H10407 assessed as decrease in cell density at 16 ug/ml after 4 hrs in presence of 4 mM human bile acid; assay type: functional, ETEC H10407
Escherichia coli [13] = assay: Antimicrobial activity against Escherichia coli H10407 assessed as decrease in cell density at 16 ug/ml after 4 hrs in presence of 4 mM pooled synthetic bile acid; assay type: functional, ETEC H10407
Escherichia coli [14] = assay: Bacteriostatic activity against Escherichia coli H10407 at 8 ug/ml in presence of bile acid relative to absence of bile acid; assay type: functional, ETEC H10407
Escherichia coli [15] = assay: Antimicrobial activity against Escherichia coli H10407 assessed as decrease in cell density at 16 ug/ml after 4 hrs in presence of 4 mM glycocholic acid; assay type: functional, ETEC H10407
Escherichia coli [16] = assay: Inhibition of RNA synthesis in Escherichia coli H10407 assessed as inhibition of beta-galactosidase expression at 32 ug/ml in presence of 4 mM bile acid; assay type: functional, ETEC H10407
Escherichia coli [17] = assay: Inhibition of RNA synthesis in Escherichia coli H10407 assessed as inhibition of beta-galactosidase expression relative to control; assay type: functional; conditions: ETEC H10407

CO[C@H]1/C=C/O[C@@]2(C)Oc3c(C)c(O)c4c(O)c(c5c(nc6cc(C)ccn65)c4c3C2=O)NC(=O)/C(C)=C\C=C\[C@H](C)[C@H](O)[C@@H](C)[C@@H](O)[C@@H](C)[C@H](OC(C)=O)[C@@H]1C [RIFAXIMIN]
Activity (Escherichia coli [1]): 59% | inhibition (INH) (Escherichia coli [2]): 77.6% | inhibition (INH) (Escherichia coli [3]): 49% | inhibition (INH) (Escherichia coli [4]): 43.9% | inhibition (INH) (Escherichia coli [5]): 89.2% | inhibition (INH) (Escherichia coli [6]): 33% | inhibition (INH) (Escherichia coli [7]): 95.5% | Activity (Escherichia coli [8]): Active | fold change (FC) (Escherichia coli [9]): 5.5 | inhibition (Escherichia coli [10]): Active | inhibition (INH) (Escherichia coli [11]): 93.8% | inhibition (INH) (Escherichia coli [12]): 72.8% | inhibition (INH) (Escherichia coli [13]): 70.6% | fold change (FC) (Escherichia coli [14]): 2 | inhibition (INH) (Escherichia coli [15]): 80.8% | inhibition (INH) (Escherichia coli [16]): 82% | inhibition (Escherichia coli [17]): Active
